Laboratory results reported in US20080269251A1, “Substituted Pyrazinone Derivatives as Alpha2C-Adrenoreceptor Antagonists” (priority 2005, published 2008).

Each compound was assayed against T1, 5HT-transporter (Homo sapiens, UniProt P31645) (assay: Binding experiment for the 5HT-transporter ([3H]paroxetine, human platelet membranes)). Conditions: [3H]paroxetine 0.5 nM, 60 min at 25° C., read-out: h-5HTT pIC50 (converted).
T1 construct: Human platelet membranes (Oceanix Biosciences Corporation, Hanover, Md., USA) were thawed; tissue Oceanix Biosciences Corporation, Hanover, Md., USA; host or cells: human platelet membranes
Procedure: (§1) The interaction of the compounds of Formula (I) with α2C-adrenoceptor receptors was assessed in in vitro radioligand binding experiments. In general, a low concentration of a radioligand with a high binding affinity for a particular receptor or transporter is incubated with a sample of a tissue preparation enriched in a particular receptor or transporter or with a preparation of cells expressing cloned human receptors in a buffered medium. During the incubation, the radioligand binds to the receptor or transporter. When equilibrium of binding is reached, the receptor bound radioactivity is separated from the non-bound radioactivity, and the receptor- or transporter-bound activity is counted. The interaction of the test compounds with the receptor is assessed in competition binding experiments. Various concentrations of the test compound are added to the incubation mixture containing the receptor- or transporter preparation and the radioligand. The test compound in proportion to its binding affinity and its concentration inhibits binding of the radioligand. The radioligand used for […] receptor binding was [^3H]-raulwolscine.
Human platelet membranes (Oceanix Biosciences Corporation, Hanover, Md., USA) were thawed, diluted in buffer (Tris-HCl 50 mM, 120 mM NaCl and 5 mM KCl) and quickly (max 3 s) homogenised with an Ultraturrax homogenizer. […] Incubation was stopped by rapid filtration of the incubation mixture over GF/B filters, pre-wetted with 0.1% polyethyleneamine, using a Filtermate196 harvester (Packard, Meriden, Conn.). Filters were rinsed extensively with ice-cold buffer and radioactivity on the filters was counted in a Topcount liquid scintillation counter (Packard, Meriden, Conn.). Data were expressed as cpm. Imipramine (at 1 μM final concentration) was used to determine the non-specific binding.
(§2) Data from assays in the presence of compound were calculated as a percentage of total binding measured in the absence of test compound. Inhibition curves, plotting percent of total binding versus the log value of the concentration of the test compound, were automatically generated, and sigmoidal inhibition curves were fitted using non-linear regression. The pIC50 values of test compounds were derived from individual curves.

T1 sequence (P31645 whole entry): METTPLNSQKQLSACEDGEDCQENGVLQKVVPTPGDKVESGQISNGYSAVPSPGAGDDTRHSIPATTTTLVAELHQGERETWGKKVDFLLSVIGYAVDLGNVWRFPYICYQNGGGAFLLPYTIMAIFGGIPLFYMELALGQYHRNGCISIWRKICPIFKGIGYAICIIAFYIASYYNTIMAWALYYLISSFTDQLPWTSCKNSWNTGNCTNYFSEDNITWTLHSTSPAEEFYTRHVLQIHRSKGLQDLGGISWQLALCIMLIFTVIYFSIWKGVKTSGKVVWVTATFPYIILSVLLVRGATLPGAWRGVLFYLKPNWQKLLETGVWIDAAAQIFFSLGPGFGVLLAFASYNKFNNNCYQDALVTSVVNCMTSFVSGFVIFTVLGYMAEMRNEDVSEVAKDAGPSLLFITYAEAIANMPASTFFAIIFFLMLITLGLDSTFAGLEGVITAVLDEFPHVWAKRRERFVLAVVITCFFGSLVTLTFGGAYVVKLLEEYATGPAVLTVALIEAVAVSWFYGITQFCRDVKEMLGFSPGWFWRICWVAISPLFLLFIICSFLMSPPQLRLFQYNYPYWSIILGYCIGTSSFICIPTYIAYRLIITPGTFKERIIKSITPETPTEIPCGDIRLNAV

Row | SMILES | IC50 [nM]
1 | O=C(Cc1ccccc1)NCc1ccc(-n2ccnc(NC3CCN(Cc4ccc5ccccc5c4)CC3)c2=O)cc1 [1-42] | 5.01
2 | C#CCN(C)C(=O)Cn1ccnc(NC2CCN(Cc3ccc4ccccc4c3)CC2)c1=O [1-38] | 1580
3 | O=Cc1ccc(-n2ccnc(NC3CCN(Cc4ccc5ccccc5c4)CC3)c2=O)cc1 [5-10] | 100
4 | O=c1[nH]c(-c2cccc(CNCC3CCCO3)c2)c(Cl)nc1NC1CCN(Cc2ccc3ccccc3c2)CC1 (stereo not shown) [7-04] | 398
5 | COc1ccc(Cn2c(-c3cccc(CNCC4CCCO4)c3)c(Cl)nc(NC3CCN(Cc4ccc5ccccc5c4)CC3)c2=O)cc1 (stereo not shown) [8-07] | 100
6 | O=C(CCN(c1nccn(CCC(=O)c2ccccc2)c1=O)C1CCN(Cc2cnc3ccccc3c2)CC1)c1ccccc1 [9-20] | 398
7 | COc1ccc(Cn2c(-c3cccc(N4CCC(N5CCCC5)CC4)c3)c(Cl)nc(NC3CCN(Cc4ccc5ccccc5c4)CC3)c2=O)cc1 [8-13] | 126
8 | Cc1ccc(N2CCN(C(=O)Cn3ccnc(NC4CCN(Cc5ccc6ccccc6c5)CC4)c3=O)CC2)cc1C [2-07] | 63.1
9 | O=c1[nH]ncn1CCCn1ccnc(NC2CCN(Cc3ccc4ccccc4c3)CC2)c1=O [6-11] | 126
10 | CN(C)CCCn1ccnc(NC2CCN(Cc3ccc4ccccc4c3)CC2)c1=O [1-12] | 251
11 | O=c1c(NC2CCN(Cc3ccc4ccccc4c3)CC2)nccn1Cc1cc2ccccc2cn1 [6-10] | 126
12 | O=C(Cn1ccnc(NC2CCN(Cc3ccc4ccccc4c3)CC2)c1=O)N1CCN(c2ccccc2)CC1 [2-05] | 200
13 | NC(=O)CCNCc1ccc(-n2ccnc(NC3CCN(Cc4ccc5ccccc5c4)CC3)c2=O)cc1 [1-56] | 15.8
14 | O=C1CN(Cc2ccc(-n3ccnc(NC4CCN(Cc5ccc6ccccc6c5)CC4)c3=O)cc2)CCN1 [2-04] | 31.6
15 | O=c1c(NC2CCN(Cc3ccc4ccccc4c3)CC2)nccn1-c1ccc(CNCC2CCCO2)cc1 (stereo not shown) [1-79b] | 2.51

Each compound was assayed against T2, human adrenergic-α2A receptor (Homo sapiens, UniProt P08913) (assay: Radioligand binding experiment for hα2A-adrenergic receptor ([3H]raulwolscine)). Conditions: [3H]raulwolscine 1 nM, 60 minutes at 25° C.; read-out: h-α2A pIC50 (converted).
T2 construct: expressed in transfected cells; host or cells: CHO cells, stably transfected; membrane preparation
T2 sequence (P08913 1-465): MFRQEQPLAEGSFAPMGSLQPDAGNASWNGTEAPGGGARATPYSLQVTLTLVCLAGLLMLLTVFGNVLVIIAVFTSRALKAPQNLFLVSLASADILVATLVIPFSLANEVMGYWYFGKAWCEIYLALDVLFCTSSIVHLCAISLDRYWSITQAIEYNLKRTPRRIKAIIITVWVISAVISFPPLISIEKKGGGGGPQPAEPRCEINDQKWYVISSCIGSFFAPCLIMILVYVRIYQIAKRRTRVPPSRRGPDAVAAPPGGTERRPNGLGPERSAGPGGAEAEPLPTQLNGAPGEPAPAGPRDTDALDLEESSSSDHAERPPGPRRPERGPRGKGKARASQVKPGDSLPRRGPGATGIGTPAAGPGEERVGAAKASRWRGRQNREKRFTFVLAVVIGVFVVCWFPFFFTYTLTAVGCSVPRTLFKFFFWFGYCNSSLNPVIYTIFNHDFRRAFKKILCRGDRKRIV
Procedure: as §1
(§3) CHO cells, stabile transfected with human adrenergic-α2A, -α2B or α2C receptor cDNA, were cultured in Dulbecco's Modified Eagle's Medium (DMEM)/Nutrient mixture Ham's F12 (ratio 1:1)(Gibco, Gent-Belgium) supplemented with 10% heat inactivated fetal calf serum (Life Technologies, Merelbeke-Belgium) and antibiotics (100 IU/ml penicillin G, 100 μg/ml streptomycin sulphate, 110 μg/ml pyruvic acid and 100 μg/ml L-glutamine). One day before collection, cells were induced with 5 mM sodiumbutyrate. Upon 80-90% of confluence, cells were scraped in phosphate buffered saline without Ca^2+ and Mg^2+ and collected by centrifugation at 1500×g for 10 minutes. The cells were homogenised in Tris-HCl 50 mM using an Ultraturrax homogenizer and centrifuged for 10 minutes at 23,500×g. The pellet was washed once by resuspension and rehomogenization and the final pellet was resuspended in Tris-HCl, divided in 1 ml aliquots and stored at −70° C.
(§4) Membranes were thawed and re-homogenized in incubation buffer (glycylglycine 25 mM, pH 8.0). In a total volume of 500 μl, 2-10 μg protein was incubated with [^3H]raulwolscine (NET-722) (New England Nuclear, USA) (1 nM final concentration) with or without competitor for 60 minutes at 25° C. followed by rapid filtration over GF/B filter using a Filtermate196 harvester (Packard, Meriden, Conn.). Filters were rinsed extensively with ice-cold rinsing buffer (Tris-HCl 50 mM pH 7.4). Filter-bound radioactivity was determined by scintillation counting in a Topcount (Packard, Meriden, Conn.) and results were expressed as counts per minute (cpm). Non-specific binding was determined in the presence of 1 μM oxymetazoline for hα2A- and hα2B receptors and 1 μM spiroxatrine for hα2C receptors.
as §2

Row | SMILES | IC50 [nM]
16 | O=C(Cc1ccccc1)NCc1ccc(-n2ccnc(NC3CCN(Cc4ccc5ccccc5c4)CC3)c2=O)cc1 [1-42] | 501
17 | C#CCN(C)C(=O)Cn1ccnc(NC2CCN(Cc3ccc4ccccc4c3)CC2)c1=O [1-38] | 398
18 | O=Cc1ccc(-n2ccnc(NC3CCN(Cc4ccc5ccccc5c4)CC3)c2=O)cc1 [5-10] | 316
19 | O=c1[nH]c(-c2cccc(CNCC3CCCO3)c2)c(Cl)nc1NC1CCN(Cc2ccc3ccccc3c2)CC1 (stereo not shown) [7-04] | 631
20 | COc1ccc(Cn2c(-c3cccc(CNCC4CCCO4)c3)c(Cl)nc(NC3CCN(Cc4ccc5ccccc5c4)CC3)c2=O)cc1 (stereo not shown) [8-07] | 501
21 | O=C(CCN(c1nccn(CCC(=O)c2ccccc2)c1=O)C1CCN(Cc2cnc3ccccc3c2)CC1)c1ccccc1 [9-20] | 3160
22 | COc1ccc(Cn2c(-c3cccc(N4CCC(N5CCCC5)CC4)c3)c(Cl)nc(NC3CCN(Cc4ccc5ccccc5c4)CC3)c2=O)cc1 [8-13] | 501
23 | Cc1ccc(N2CCN(C(=O)Cn3ccnc(NC4CCN(Cc5ccc6ccccc6c5)CC4)c3=O)CC2)cc1C [2-07] | 398
24 | O=c1[nH]ncn1CCCn1ccnc(NC2CCN(Cc3ccc4ccccc4c3)CC2)c1=O [6-11] | 794
25 | CN(C)CCCn1ccnc(NC2CCN(Cc3ccc4ccccc4c3)CC2)c1=O [1-12] | 200
26 | O=c1c(NC2CCN(Cc3ccc4ccccc4c3)CC2)nccn1Cc1cc2ccccc2cn1 [6-10] | 251
27 | O=C(Cn1ccnc(NC2CCN(Cc3ccc4ccccc4c3)CC2)c1=O)N1CCN(c2ccccc2)CC1 [2-05] | 251
28 | NC(=O)CCNCc1ccc(-n2ccnc(NC3CCN(Cc4ccc5ccccc5c4)CC3)c2=O)cc1 [1-56] | 251
29 | O=C1CN(Cc2ccc(-n3ccnc(NC4CCN(Cc5ccc6ccccc6c5)CC4)c3=O)cc2)CCN1 [2-04] | 126

The compounds below were run against T3, human adrenergic-α2C receptor (Homo sapiens, UniProt P18825) (assay: Radioligand binding experiment for hα2C-adrenoceptor ([3H]raulwolscine)). Conditions: [3H]raulwolscine 1 nM, 60 minutes at 25° C.; read-out: h-α2C pIC50 (converted).
T3 construct: expressed in transfected cells; host or cells: CHO cells, stably transfected; membrane preparation
T3 sequence (P18825 1-462): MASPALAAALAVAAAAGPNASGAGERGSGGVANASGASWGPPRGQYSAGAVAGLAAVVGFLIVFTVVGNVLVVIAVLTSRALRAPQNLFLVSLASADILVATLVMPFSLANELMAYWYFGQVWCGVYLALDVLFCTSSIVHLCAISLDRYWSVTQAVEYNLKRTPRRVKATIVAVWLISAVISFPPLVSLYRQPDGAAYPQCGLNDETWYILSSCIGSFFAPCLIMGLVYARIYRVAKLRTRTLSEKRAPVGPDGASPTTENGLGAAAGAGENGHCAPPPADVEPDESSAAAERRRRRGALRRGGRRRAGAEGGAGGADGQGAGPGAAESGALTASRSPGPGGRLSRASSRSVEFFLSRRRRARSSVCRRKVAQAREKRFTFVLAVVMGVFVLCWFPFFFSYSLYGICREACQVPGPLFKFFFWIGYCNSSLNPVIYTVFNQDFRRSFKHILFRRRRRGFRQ
Procedure: as §1, §3, §4, §2

Row | SMILES | IC50 [nM]
30 | O=C(Cc1ccccc1)NCc1ccc(-n2ccnc(NC3CCN(Cc4ccc5ccccc5c4)CC3)c2=O)cc1 [1-42] | 31.6
31 | C#CCN(C)C(=O)Cn1ccnc(NC2CCN(Cc3ccc4ccccc4c3)CC2)c1=O [1-38] | 63.1
32 | O=Cc1ccc(-n2ccnc(NC3CCN(Cc4ccc5ccccc5c4)CC3)c2=O)cc1 [5-10] | 63.1
33 | O=c1[nH]c(-c2cccc(CNCC3CCCO3)c2)c(Cl)nc1NC1CCN(Cc2ccc3ccccc3c2)CC1 (stereo not shown) [7-04] | 126
34 | COc1ccc(Cn2c(-c3cccc(CNCC4CCCO4)c3)c(Cl)nc(NC3CCN(Cc4ccc5ccccc5c4)CC3)c2=O)cc1 (stereo not shown) [8-07] | 158
35 | O=C(CCN(c1nccn(CCC(=O)c2ccccc2)c1=O)C1CCN(Cc2cnc3ccccc3c2)CC1)c1ccccc1 [9-20] | 398
36 | COc1ccc(Cn2c(-c3cccc(N4CCC(N5CCCC5)CC4)c3)c(Cl)nc(NC3CCN(Cc4ccc5ccccc5c4)CC3)c2=O)cc1 [8-13] | 126
37 | Cc1ccc(N2CCN(C(=O)Cn3ccnc(NC4CCN(Cc5ccc6ccccc6c5)CC4)c3=O)CC2)cc1C [2-07] | 79.4
38 | O=c1[nH]ncn1CCCn1ccnc(NC2CCN(Cc3ccc4ccccc4c3)CC2)c1=O [6-11] | 100
39 | CN(C)CCCn1ccnc(NC2CCN(Cc3ccc4ccccc4c3)CC2)c1=O [1-12] | 31.6
40 | O=c1c(NC2CCN(Cc3ccc4ccccc4c3)CC2)nccn1Cc1cc2ccccc2cn1 [6-10] | 63.1
41 | O=C(Cn1ccnc(NC2CCN(Cc3ccc4ccccc4c3)CC2)c1=O)N1CCN(c2ccccc2)CC1 [2-05] | 39.8
42 | NC(=O)CCNCc1ccc(-n2ccnc(NC3CCN(Cc4ccc5ccccc5c4)CC3)c2=O)cc1 [1-56] | 25.1
43 | O=C1CN(Cc2ccc(-n3ccnc(NC4CCN(Cc5ccc6ccccc6c5)CC4)c3=O)cc2)CCN1 [2-04] | 25.1
44 | O=C1c2ccccc2C(=O)N1CC#CCn1ccnc(NC2CCN(Cc3ccc4ncccc4c3)CC2)c1=O [9-11] | 12.6
45 | O=C1c2ccccc2C(=O)N1CC#CCn1ccnc(NC2CCN(Cc3ccc4ncccc4c3)CC2)c1=O [9-30] | 31.6
46 | O=c1c(NC2CCN(Cc3ccc4ccccc4c3)CC2)nccn1-c1ccc(CNCC2CCCO2)cc1 (stereo not shown) [1-79b] | 6.31
